From patent publication US20200024278A1, “COMPOSITION COMPRISING ANTIBIOTIC COMPOUND AND AN HETEROCYCLIC COMPOUND AND THEIR USE IN PREVENTING OR TREATING BACTERIAL INFECTIONS” (MUTABILIS, priority 2016, published 2020)
Read-outs that look alike come from different tables or passages of the source. Values belong to the compound of their own block, whether it stands above or below them.

Experiments:
Test in all cases: MIC, broth microdilution (CLSI), substance alone or ATB combined with compound at 4 or 8 μg/mL
PAE UFR90 = format: cell-based, P. aeruginosa; conditions: PAE UFR90
Procedure: (§1) Compounds of the present invention were assessed against genotyped bacterial strains alone or in combination with an antibacterial. In the assays, MICs of said compounds or combination of antibiotics with fixed concentrations of said compounds (4 or 8 μg/mL) were determined by the broth microdilution method according to the Clinical Laboratory Standards Institute (CLSI-M7-A7). Briefly, compounds alone according to the invention were prepared in DMSO and spotted (2 μL each) on sterile polystyrene plates (Corning, 3788). Combinations of compounds and antibiotics dilutions were prepared in DMSO and spotted (1 μL each) on sterile polystyrene plates (Corning, 3788). Log phase bacterial suspensions were adjusted to a final density of 5·10^5 CFU/mL in cation-adjusted Mueller-Hinton broth (ca-MHB; Becton-Dickinson and Company) and added to each well (98 μL). Assays including Fosfomycin were supplemented with 25 μg/ml of Glucose-6-phosphate. Microplates were incubated for 16-20 h at 35° C. in ambient air. The MIC of the compounds was defined as the lowest concentration of said compounds that prevented bacterial growth as read by visual inspection. The MIC of ATB at each compound concentration was defined as the lowest concentration of ATB that prevented bacterial growth as read by visual inspection.

PAE 105250 = format: cell-based, P. aeruginosa; conditions: PAE 105250; for MIC: Pseudomonas aeruginosa
Procedure: as §1

PAE UFR48 = format: cell-based, P. aeruginosa; conditions: PAE UFR48
Procedure: as §1

ECO UFR39 = format: cell-based, E. coli; conditions: ECO UFR39; with Example 13 at 8 μg/ml
Procedure: as §1

ECO 190317 = format: cell-based, E. coli; conditions: ECO 190317
Procedure: as §1

SAU 29213 = format: cell-based, S. aureus; conditions: SAU 29213
Procedure: as §1

ECL P99 = format: cell-based, E. cloacae; conditions: ECL P99
Procedure: as §1

SPN 49619 = format: cell-based, S. pneumoniae; conditions: SPN 49619; for MIC: Streptococcus pneumoniae
Procedure: as §1

[1] = antibiotic alone, read-out: MIC ATB alone

MIC ATB combined with Example 1 @8 μg/ml (PAE UFR90; with Example 1 @8 μg/ml): <0.031 µg/mL | MIC ATB combined with Example 1 @8 μg/ml (PAE UFR90; with Example 1 at 8 μg/ml): <0.031 µg/mL | MIC ATB combined with Example 7 @8 μgml (PAE UFR90; with Example 7 at 8 μg/ml): >32 µg/mL | MIC ATB combined with Example 11 @8 μg/ml (PAE UFR90; with Example 11 at 8 μg/ml): 32 µg/mL | MIC ATB combined with Example 12 @8 μg/ml (PAE UFR90; with Example 12 at 8 μg/ml): >32 µg/mL | MIC ATB combined with Example 14 @8 μg/ml (PAE UFR90; with Example 14 at 8 μg/ml): >32 µg/mL | MIC ATB combined with Example 16 @4 μg/ml (PAE UFR90; with Example 16 at 4 μg/ml): >32 µg/mL | MIC ATB combined with Example 1 @8 μg/ml (PAE 105250; with Example 1 @8 μg/ml): <0.031 µg/mL | MIC ATB combined with Example 1 @8 μg/ml (PAE 105250; with Example 1 at 8 μg/ml): <0.031 µg/mL | MIC ATB combined with Example 11 @8 μg/ml (PAE 105250; with Example 11 at 8 μg/ml): 32 µg/mL | MIC ATB combined with Example 12 @8 μg/ml (PAE 105250; with Example 12 at 8 μg/ml): >32 µg/mL | MIC ATB combined with Example 14 @8 μg/ml (PAE 105250; with Example 14 at 8 μg/ml): >32 µg/mL | MIC ATB combined with Example 15 @4 μgml (PAE 105250; with Example 15 at 4 μg/ml): 32 µg/mL | MIC ATB combined with Example 16 @4 μg/ml (PAE 105250; with Example 16 at 4 μg/ml): >32 µg/mL | MIC ATB combined with Example 1 @8 μg/ml (PAE UFR48; with Example 1 @8 μg/ml): <0.031 µg/mL | MIC ATB combined with Example 1 @8 μg/ml (PAE UFR48; with Example 1 at 8 μg/ml): <0.031 µg/mL | MIC ATB combined with Example 7 @8 μgml (PAE UFR48; with Example 7 at 8 μg/ml): >32 µg/mL | MIC ATB combined with Example 11 @8 μg/ml (PAE UFR48; with Example 11 at 8 μg/ml): >32 µg/mL | MIC ATB combined with Example 12 @8 μg/ml (PAE UFR48; with Example 12 at 8 μg/ml): >32 µg/mL | MIC ATB combined with Example 15 @4 μgml (PAE UFR48; with Example 15 at 4 μg/ml): >32 µg/mL | MIC ATB combined with Example 16 @4 μg/ml (PAE UFR48; with Example 16 at 4 μg/ml): >32 µg/mL | MIC ATB combined with Example 13 @8 μg/ml (ECO UFR39): <0.031 µg/mL | MIC ATB combined with Example 1 @8 μg/ml (ECO 190317; with Example 1 @8 μg/ml): <0.031 µg/mL | MIC ATB combined with Example 1 @8 μg/ml (ECO 190317; with Example 1 at 8 μg/ml): <0.031 µg/mL | MIC ATB combined with Example 13 @8 μg/ml (ECO 190317; with Example 13 at 8 μg/ml): <0.031 µg/mL | MIC ATB alone (SAU 29213; antibiotic alone): 8 µg/mL | MIC ATB combined with Example 1 @8 μg/ml (SAU 29213; with Example 1 @8 μg/ml): 4 µg/mL | MIC ATB combined with Example 1 @8 μg/ml (SAU 29213; with Example 1 at 8 μg/ml): 4 µg/mL | MIC ATB combined with Example 7 @8 μgml (SAU 29213; with Example 7 at 8 μg/ml): 2 µg/mL | MIC ATB combined with Example 11 @8 μg/ml (SAU 29213; with Example 11 at 8 μg/ml): <=0.031 μg/mL | MIC ATB combined with Example 13 @8 μg/ml (SAU 29213; with Example 13 at 8 μg/ml): 4 µg/mL | MIC ATB combined with Example 1 @8 μg/ml (ECL P99; with Example 1 @8 μg/ml): <0.031 µg/mL | MIC ATB combined with Example 1 @8 μg/ml (ECL P99; with Example 1 at 8 μg/ml): <0.031 µg/mL | MIC ATB combined with Example 7 @8 μgml (ECL P99; with Example 7 at 8 μg/ml): 2 µg/mL | MIC ATB combined with Example 13 @8 μg/ml (ECL P99; with Example 13 at 8 μg/ml): 1 µg/mL | MIC ATB combined with Example 7 @8 μgml (SPN 49619; with Example 7 at 8 μg/ml): 0.063 µg/mL | MIC ATB combined with Example 9 @4 μg/ml (SPN 49619; with Example 9 @4 μg/ml): <=0.031 μg/mL | MIC ATB combined with Example 9 @4 μg/ml (SPN 49619; with Example 9 at 4 μg/ml): <=0.031 μg/mL | MIC ATB combined with Example 11 @8 μg/ml (SPN 49619; with Example 11 at 8 μg/ml): <=0.031 μg/mL | MIC ATB combined with Example 13 @8 μg/ml (SPN 49619; with Example 13 at 8 μg/ml): <=0.031 μg/mL | MIC ATB combined with Example 15 @4 μgml (SPN 49619; with Example 15 at 4 μg/ml): <=0.031 μg/mL
Compound: CO/N=C(\C(=O)N[C@@H]1C(=O)N2C(C(=O)O)=C(CSc3nc(=O)c(O)nn3C)CS[C@H]12)c1csc(N)n1 [CTR]

MIC ATB alone (SAU 29213; ERY alone): 1 µg/mL | MIC ATB alone (SAU 29213; antibiotic alone): 1 µg/mL | MIC ATB combined with Example 1 @8 μg/ml (SAU 29213; with Example 1 @8 μg/ml): 0.25 µg/mL | MIC ATB combined with Example 9 @4 μg/ml (SAU 29213): <=0.0020 μg/mL | MIC ATB alone (SPN 49619; ERY alone): 0.063 µg/mL | MIC ATB alone (SPN 49619; antibiotic alone): 0.063 µg/mL | MIC ATB combined with Example 1 @8 μg/ml (SPN 49619): 0.063 µg/mL | MIC ATB combined with Example 9 @4 μg/ml (SPN 49619; with Example 9 @4 μg/ml): <0.0020 µg/mL
Compound: CC[C@H]1OC(=O)[C@H](C)[C@@H](O[C@H]2C[C@@](C)(OC)[C@@H](O)[C@H](C)O2)[C@H](C)[C@@H](O[C@@H]2O[C@H](C)C[C@H](N(C)C)[C@H]2O)[C@](C)(O)C[C@@H](C)C(=O)[C@H](C)[C@@H](O)[C@]1(C)O [ERY]

MIC ATB alone (SAU 29213; RIF alone): 0.0078 µg/mL | MIC ATB alone (SAU 29213; antibiotic alone): 0.0078 µg/mL | MIC ATB combined with Example 1 @8 μg/ml (SAU 29213; with Example 1 @8 μg/ml): 0.0078 µg/mL | MIC ATB combined with Example 9 @4 μg/ml (SAU 29213): 0.002 µg/mL | MIC ATB alone (SPN 49619; RIF alone): 0.031 µg/mL | MIC ATB alone (SPN 49619; antibiotic alone): 0.031 µg/mL | MIC ATB combined with Example 1 @8 μg/ml (SPN 49619): 0.063 µg/mL | MIC ATB combined with Example 9 @4 μg/ml (SPN 49619; with Example 9 @4 μg/ml): 0.00024 µg/mL
Compound: CO[C@H]1/C=C/O[C@@]2(C)Oc3c(C)c(O)c4c(O)c(c(/C=N/N5CCN(C)CC5)c(O)c4c3C2=O)NC(=O)/C(C)=C\C=C\[C@H](C)[C@H](O)[C@@H](C)[C@@H](O)[C@@H](C)[C@H](OC(C)=O)[C@@H]1C [RIF]

Compound: C[C@H]1[C@H](NC(=O)/C(=N\OC(C)(C)C(=O)O)c2csc(N)n2)C(=O)N1S(=O)(=O)O [ATM, Aztreonam, reference compound]
MIC (PAE 105250; [1]): 8 µg/mL | MIC (PAE 105250; substance alone, read-out: MIC): 8 µg/mL | MIC (ECO 190317; Escherichia coli, antibiotic alone, read-out: MIC ATB alone): 128 µg/mL | MIC (SPN 49619; [1]): > 64 µg/mL | MIC (SPN 49619; substance alone, read-out: MIC): > 64 µg/mL

MIC ATB alone (SAU 29213; antibiotic alone): 1 µg/mL | MIC ATB combined with Example 1 @8 μg/ml (SAU 29213; with Example 1 @8 μg/ml): 1 µg/mL | MIC ATB combined with Example 9 @4 μg/ml (SAU 29213): <0.0039 µg/mL | MIC ATB alone (SAU 29213; VAN alone): 1 µg/mL | MIC ATB alone (SPN 49619; antibiotic alone): 0.25 µg/mL | MIC ATB combined with Example 1 @8 μg/ml (SPN 49619): 0.25 µg/mL | MIC ATB combined with Example 9 @4 μg/ml (SPN 49619; with Example 9 @4 μg/ml): <0.0039 µg/mL | MIC ATB alone (SPN 49619; VAN alone): 0.25 µg/mL
Compound: CN[C@H](CC(C)C)C(=O)N[C@H]1C(=O)N[C@@H](CC(N)=O)C(=O)N[C@H]2C(=O)N[C@H]3C(=O)N[C@H](C(=O)N[C@H](C(=O)O)c4cc(O)cc(O)c4-c4cc3ccc4O)[C@H](O)c3ccc(c(Cl)c3)Oc3cc2cc(c3O[C@@H]2O[C@H](CO)[C@@H](O)[C@H](O)[C@H]2O[C@H]2C[C@](C)(N)[C@H](O)[C@H](C)O2)Oc2ccc(cc2Cl)[C@H]1O [VAN]

MIC ATB alone (SAU 29213; LZD alone): 4 µg/mL | MIC ATB alone (SAU 29213; antibiotic alone): 4 µg/mL | MIC ATB combined with Example 1 @8 μg/ml (SAU 29213; with Example 1 @8 μg/ml): 2 µg/mL | MIC ATB combined with Example 9 @4 μg/ml (SAU 29213): <0.0078 µg/mL | MIC ATB alone (SPN 49619; LZD alone): 1 µg/mL | MIC ATB alone (SPN 49619; antibiotic alone): 1 µg/mL | MIC ATB combined with Example 1 @8 μg/ml (SPN 49619): 1 µg/mL | MIC ATB combined with Example 9 @4 μg/ml (SPN 49619; with Example 9 @4 μg/ml): <=0.0078 μg/mL
Compound: CC(=O)NC[C@H]1CN(c2ccc(N3CCOCC3)c(F)c2)C(=O)O1 [LZD]

MIC ATB alone (SPN 49619; CLI alone): 0.125 µg/mL | MIC ATB alone (SPN 49619; antibiotic alone): 0.125 µg/mL | MIC ATB combined with Example 1 @8 μg/ml (SPN 49619): 0.063 µg/mL | MIC ATB combined with Example 9 @4 μg/ml (SPN 49619; with Example 9 @4 μg/ml): 0.0039 µg/mL
Compound: CCC[C@@H]1C[C@@H](C(=O)N[C@@H]([C@H]2O[C@H](SC)[C@H](O)[C@@H](O)[C@H]2O)[C@H](C)Cl)N(C)C1 [CLI]
